Assay results as given in PubChem BioAssay (NCI).
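Interpolation was linear, between the two tested concentrations surrounding the appropriate level; five concentrations were tested over 48 hours in 96-well plates. TGI marks complete inhibition of growth.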

How the values were obtained:
Assay in all cases: inhibition of tumour cell growth, NCI panel, 48 h
[1] = test system: SW-620 colon
[2] = test system: UACC-257 melanoma
[3] = test system: DU-145 prostate
[4] = test system: SNB-19 CNS
[5] = test system: NCI-H522 lung
[6] = test system: SK-MEL-2 melanoma
[7] = test system: OVCAR-8 ovarian
[8] = test system: SK-OV-3 ovarian
[9] = test system: MDA-MB-231 breast
[10] = test system: NCI-H23 lung
[11] = test system: HCC-2998 colon
[12] = test system: U251 CNS
[13] = test system: NCI/ADR-RES ovarian
[14] = test system: SR leukemia
[15] = test system: NCI-H460 lung
[16] = test system: RXF 393 renal

Structure (SMILES) | TGI [1] [µM] | TGI [2] [µM] | TGI [3] [µM] | TGI [4] [µM] | TGI [5] [µM] | TGI [6] [µM] | TGI [7] [µM] | TGI [8] [µM] | TGI [9] [µM] | TGI [10] [µM] | TGI [11] [µM] | TGI [12] [µM] | TGI [13] [µM] | TGI [14] [µM] | TGI [15] [µM] | TGI [16] [µM]
CN(C)CCn1c(=O)c2ccc(NCCNCCO)c3c(=O)c4ccccc4n(c1=O)c23 | > 30.7 | 3.14 | 0.628 | 3.98 | 0.34 | 1.85 | 5.64 | 16.2 | 0.852 | 0.849 | 2.34 | 3.07 | 16.3 |  |  | 
CC12CCCC(C(=O)O)(C1)[C@H](C(C)(C)C(=O)O)CC2 (stereo partly specified) | > 100 | > 100 | > 100 | > 100 | > 100 | > 100 | > 100 | > 100 |  | > 100 |  | > 100 | > 100 | > 100 | > 100 | 
COC(=O)c1ccccc1/C=C1\Cc2c(C)c3c(c(C)c2C1=O)CCC3 | > 100 | > 100 | > 100 | > 100 | > 100 | > 100 | > 100 |  |  | > 100 | > 100 | > 100 | > 100 | > 100 | > 100 | > 100
O=S(=O)(/N=S(/Nc1ccccc1)C(Cl)Cl)c1ccccc1 (stereo unspecified) | > 100 | > 100 | > 100 | > 100 |  | > 100 | > 100 | > 100 | > 100 | > 100 |  | > 100 | > 100 |  | > 100 | > 100
CC(=O)C(C(=O)c1ccc(C)cc1)[C@@H]1OC(C)(C)O[C@@H]1[C@H]1COC(C)(C)O1 (stereo partly specified) | > 54.6 | 28.6 | 29.8 | > 48.3 | 11.3 | > 23.2 | > 50.7 | > 100 | > 35.1 | 32.6 | > 53.4 | 18.5 | > 70.9 |  | > 88.9 | 36.4
Cc1ccc(-c2c(C#N)c(-c3ccccc3)n(NS(=O)(=O)c3ccc(C)cc3)c(=O)c2C#N)cc1 | > 100 | > 100 |  | > 100 | > 100 | > 100 | > 100 | > 100 | > 100 |  | > 100 | > 100 | > 100 |  | > 100 | > 100
